Literature values in patent US10463679B2, “Compressed capsules for giving birth to males” (priority 2016, dated 2019).

Experiments:
[1] = manufacturer's web site and prescription accompanying Florinef tablet
[2] = sodium and chloride intake per day
[3] = system: mice; settings: for mice
[4] = one liter administered intravenously; glucose 5% + water, saline 9% sodium chloride + water, albumin

## C[C@]12CCC(=O)C=C1CC[C@H]1[C@@H]3CC[C@](O)(C(=O)CO)[C@@]3(C)C[C@H](O)[C@@]12F [Fludrocortisone]
[1]
  side effects of the drug: skin thinning and fragility

## [Cl-].[Na+] [Sodium chloride]
[2]
  harmful dose: 1000 g per day
[3]
  lethal dose: 2.5 g/kg per day

## Saline
[4]
  distribution of the solution among the three regions (intracellular, intercellular, blood vessels): distributed among the three regions but precipitated in the intercellular region
